One molecule from patent US11135188B2, “Method and composition to improve absorption of therapeutic agents” (Bayer HealthCare LLC, priority 2009, dated 2021) can be followed below.

A short description of this series: Compatibility: degradation products of aspirin/carbonate blends by HPLC. Type of series: physicochemical. The protocol: The degradation products of various combinations of aspirin and various carbonates were determined for different combinations of aspirin and different grades and sources of carbonates to evaluate the compatibility and stability. Milling for about fifteen minutes appeared to slightly induce the production of free salicylic acid (FSA), but not to a significant extent. […] The results are shown in Table 3 (all blend percentages are weight percentages obtained using High Performance Liquid Chromatography (HPLC))

Molecules are shown by their SMILES.

With `CC(=O)Oc1ccccc1C(=O)O` [100% Aspirin-Milled 15 min, Aspirin], the “Acetyl Salicylic Salicylic Acid ASSA” value is reported as 0.00% and the “FSA (free salicylic acid)” value turned out to be 0.00%.
